# Results reported in the RepoRT retention time repository.
# Experiment: HILIC, Waters Atlantis Premier BEH Z-HILIC, 100 × 2.1 mm, 1.7 µm, 40 °C, 0.17 mL/min, estimated dead time 1.3 min; A: water + 20 mM ammonium carbonate + 5 µM medronic acid; B: 10% water + 90% acetonitrile + 2 mM ammonium carbonate + 0.5 µM medronic acid; gradient (min/%B) 0/100 18/60 18.1/20 21.5/20 22/100 23.5/100 25.5/100
# Details: stereoisomer not certain
row,Compound,LC retention time [min]
1,O=C(O)CCC(O)C(=O)O (centres undefined) [2-hydroxy glutaric acid],9.81
2,Nc1ncnc2c1ncn2C1OC(COP(=O)(O)OP(=O)(O)O)C(O)C1O (centres undefined) [ADP],11
3,Nc1ncnc2c1ncn2C1OC(COP(=O)(O)O)C(O)C1O (centres undefined) [AMP],8.86
4,Nc1ncnc2c1ncn2C1OC(COP(=O)(O)OP(=O)(O)OP(=O)(O)O)C(O)C1O (centres undefined) [ATP],13
5,O=C(O)CCCCC1SCC2NC(=O)NC21 (centres undefined) [Biotin],4.19
6,C[N+](C)(C)CC(O)CC(=O)[O-] (centres undefined) [Carnitine],9.73
7,CC(C)(COP(=O)(O)OP(=O)(O)OCC1OC(n2cnc3c(N)ncnc32)C(O)C1OP(=O)(O)O)C(O)C(=O)NCCC(=O)NCCS (centres undefined) [CoenzymeA],11.9
8,Cc1cc2nc3c(=O)[nH]c(=O)nc-3n(CC(O)C(O)C(O)COP(=O)(O)OP(=O)(O)OCC3OC(n4cnc5c(N)ncnc54)C(O)C3O)c2cc1C (centres undefined) [FAD],7.12
9,O=C(CO)C(O)C(O)C(O)COP(=O)(O)O (centres undefined) [Fructose 6-phosphate],10.9
10,Nc1nc2c(ncn2C2OC(COP(=O)(O)OP(=O)(O)OP(=O)(O)O)C(O)C2O)c(=O)[nH]1 (centres undefined) [GTP],15.3
11,O=P(O)(O)OCC1OC(O)C(O)C(O)C1O (centres undefined) [Glucose-6-phosphate],12.4
12,NC(CCC(=O)O)C(=O)O (centres undefined) [Glutamic acid],9.15
13,NC(=O)CCC(N)C(=O)O (centres undefined) [Glutamine],10.4
14,CCC(C)C(N)C(=O)O (centres undefined) [Isoleucine],5.97
15,CC(O)C(=O)O (centres undefined) [Lactic Acid],2.96
16,CC(C)CC(N)C(=O)O (centres undefined) [Leucine],5.72
17,NC(=O)C1=CN(C2OC(COP(=O)(O)OP(=O)(O)OCC3OC(n4cnc5c(N)ncnc54)C(O)C3O)C(O)C2O)C=CC1 (centres undefined) [NADH],8.45
18,NC(=O)c1ccc[n+](C2OC(COP(=O)(O)OP(=O)(O)OCC3OC(n4cnc5c(N)ncnc54)C(O)C3O)C(O)C2O)c1 (centres undefined) [NAD],10.7
19,O=C(O)CCC(=O)O [Succinic Acid],9.16
20,O=C(CO)COP(=O)(O)O [Triose phosphate],9.76
21,CC(=O)NC1C(OP(=O)(O)OP(=O)(O)OCC2OC(n3ccc(=O)[nH]c3=O)C(O)C2O)OC(CO)C(O)C1O (centres undefined) [UDP-GlcNAc],9.68
22,CCC(=O)OC(CC(=O)[O-])C[N+](C)(C)C (centres undefined) [carnitine-C3],6.63
23,O=C1CC(C(=O)O)NC(=O)N1 (centres undefined) [dihydroorotic acid],4.87

# Results, then the compound that gave them:
row,LC retention time [min],Compound
1,9.07,O=C(O)CCC(=O)C(=O)O [2-Oxoglutaric acid]
2,10.5,CC(=O)SCCNC(=O)CCNC(=O)C(O)C(C)(C)COP(=O)(O)OP(=O)(O)OCC1OC(n2cnc3c(N)ncnc32)C(O)C1OP(=O)(O)O (centres undefined) [Acetyl-CoA]
3,4.21,Nc1ncnc2c1ncn2C1OC(CO)C(O)C1O (centres undefined) [Adenosine]
4,13.9,O=C(O)CC(O)(CC(=O)O)C(=O)O [Citric acid]
5,15.2,"O=P(O)(O)OCC1OC(O)(COP(=O)(O)O)C(O)C1O (centres undefined) [Fructose-1,6-bisphosphate]"
6,9.75,O=P(O)(O)OCC(O)CO (centres undefined) [Glycerol-3-phosphate]
7,7.55,OCC1OC(O)C(O)C(O)C1O (centres undefined) [Hexose]
8,14.5,O=C(O)CC(C(=O)O)C(O)C(=O)O (centres undefined) [Isocitric acid]
9,13.4,NC(=O)c1ccc[n+](C2OC(COP(=O)(O)OP(=O)(O)OCC3OC(n4cnc5c(N)ncnc54)C(OP(=O)(O)O)C3O)C(O)C2O)c1 (centres undefined) [NADP]
10,13.8,C=C(OP(=O)(O)O)C(=O)O [PEP]
11,12.2,O=C(O)C(CO)OP(=O)(O)O (centres undefined) [Phosphoglyceric acid A]
